Key:
[1] = test system: primary fibroblasts (IMR90) transduced with H-RasG12V; assay: Validation: manual quantification of SA-β-gal positive cells; format: cell-based, human; details: for % SA-β-Gal + Cells Avg: 250 nM inhibitor, +H-RasG12V IMR90, 7 additional days, >300 cells counted, triplicate
Experimental: Senescence-associated β-galactosidase (SA-β-Gal) assay has previously been described^9. Briefly, cells were fixed in 2% formaldehyde and 0.2% glutaraldehyde and washed with phosphate-buffered saline. Staining solution [40 mM Na2HPO4, 150 mM NaCl, 2 mM MgCl2, 5 mM K3Fe(CN)6, 5 mM K4Fe(CN)6, 1 mg/mL X-gal] was added with a multichannel pipette, and cells were incubated for 24 hrs. Cells were stained with DAPI (0.15 μg/mL) to visualize nuclei.
(§1) Cells with β-galactosidase (blue) positivity within the cytosol were considered positive. Cells were stained with DAPI to visualize nuclei and SAHF. Cells with punctate spots within the nuclear compartment were considered SAHF positive. Cells were imaged using a Nikon Eclipse Ni fluorescence microscope as previously described^15. Three different fields of cells were counted (total cells counted >300). These experiments were performed in triplicate. Data from validation experiments is shown as a percentage of SA-β-gal or SAHF positive cells.
These cells were then utilized in the SA-β-gal assay to examine changes in expression of SA-β-gal activity.
(§2) Other than the control, all of the tested compounds are +H-Ras^G12V. Percentage of SA-β-gal and SAHF positive cells is shown with indicated standard deviation (SD). Total cells with SA-β-gal positive cells or SAHF positive cells were counted in three separate fields (totals cells counted >300). Experiments were performed in triplicate. p-value determined by t-test.

[2] = test system: primary fibroblasts (IMR90) transduced with H-RasG12V; assay: Validation: senescence-associated heterochromatin foci (SAHF) positive cells by DAPI staining; format: cell-based, human; details: for % SAHF + Cells Avg: 250 nM inhibitor, +H-RasG12V IMR90, 9 days of culture, >300 cells counted, triplicate
Experimental: as §1
After 9 days of culture, we stained the cells with DAPI to visualize the formation of SAHF.
as §2

[3] = test system: primary human fibroblasts (IMR90) transduced with H-RasG12V; assay: High-throughput senescence screen (SA-β-gal area and nuclei number, high-content imaging); format: cell-based; details: 250 nM, 96-well, normalized to DMSO control, hit = beyond one standard deviation
Experimental: We use a model system for DIS that involves overexpressing an activated Ras in normal human fibroblast (IMR90). Upon expression of Ras, these cells undergo senescence as measured by increased β-galactosidase activity. IMR90 cells are infected with retrovirus control (496) or Ras (493). IMR90 cells were transduced over two days (Day −1 and 0) with pBABE-HRasG12V. Cells were then plated into a 96-well plate at a predetermined density (1,000 cells/well) and selected with puromycin (1 ug/mL) for two days (Day 1 and 2). The initial number of cells per well (1,000) was optimized to avoid confluence-induced growth inhibition. […] Allowing the cells to undergo senescence ([…] after puromycin selection), on day 9, cells were subjected to a quantitative SA-β-gal assay (described below) and stained with DAPI to visualize nuclei, which allowed for quantification of cell number. […]
For the screen, four fluorescence and four phase contrast images were acquired from each well of the 96-well plates with an ImageXpress Micro high-content imaging system (Molecular Devices, Sunnyvale Calif.) using the 10× objective. […] Fluorescence images were used to record DAPI staining of cell nuclei. Images were analyzed utilizing the MultiWavelength Scoring module in METAXPRESS image analysis software (Molecular Devices). […]

[4] = test system: senescence; details: literature report; cited from earlier work
[5] = 250 nM, RAS-expressing cells, significance p<0.05 vs DMSO

Row | SMILES | % SA-β-Gal + Cells Avg [1] [%] | % SAHF + Cells Avg [2] [%] | Inhibition of oncogenic RAS-induced SAHF formation (validation, in words) [2, 5] | Reduction of expression of SA-β-gal activity (validation, in words) [1, 5] | Effect on SA-β-gal area and cell number (nuclei) in initial screen [3] | Prevention of senescence (reported) [4]
1 | Cc1nc2cc3nc(-c4cccs4)cnc3cc2n1C [22617-28-8, AGL2043] | 10.9 | 10.2 | – | – | – | –
2 | O=c1c2ccccc2[nH]c(=S)n1CCN1CCC(=C(c2ccc(F)cc2)c2ccc(F)cc2)CC1 [120166-69-0, Diacylglycerol Kinase Inhibitor II] | 5.2 | 10.4 | – | – | – | –
3 | COc1ccc(S(=O)(=O)N(CCO)c2ccccc2CN(C)CC=Cc2ccc(Cl)cc2)cc1 [139298-40-1, KN-93] | 8.1 | 12.3 | – | – | – | –
4 | CCc1[nH]c(-c2ccc(OC)cc2)nc1-c1ccncc1 [172747-50-1, SB 202474] | 6.7 | 10.4 | – | – | – | –
5 | COc1cc2ncnc(Nc3cccc(Cl)c3)c2cc1OC [175178-82-2, AG 1478] | 3.8 | 11.5 | – | – | – | –
6 | O=c1c(-c2ccc(F)cc2)c(-c2ccncc2)[nH]n1-c1ccc(Cl)cc1 [219138-24-6, P38 MAPK Inhibitor] | 5.8 | 16.3 | – | – | – | –
7 | O=C1NC(=O)C(c2cn(CCCn3ccnc3)c3ccccc23)=C1Nc1ccccc1 [257879-35-9, PKC β Inhibitor] | 5.5 | 8.3 | – | – | – | –
8 | O=C(Nc1ccc(Cl)cc1)c1ccccc1NCc1ccncc1 [269390-69-4, VEGFR Tyrosine Kinase Inhibitor II] | 4.1 | 13.0 | – | – | – | –
9 | Cn1sc(=O)n(Cc2ccccc2)c1=O [327036-89-5, GSK3β Inhibitor I] | 6.5 | 7.8 | – | – | – | –
10 | COc1cc2nccc(Oc3ccc(NC(=S)NC(=O)c4ccccc4C)cc3)c2cc1OC [347155-76-4, PDGFR Tyrosine Kinase Inhibitor V] | 6.7 | 16.3 | – | – | – | –
11 | Oc1cccc(-c2nc(N3CCOCC3)c3oc4ncccc4c3n2)c1 [371935-74-9, PI-103] | 4.7 | 43.0 | failed to prevent SAHF formation | – | – | –
12 | Cc1cc(Nc2nc(-c3ccccc3)nc3ccccc23)n[nH]1 [404828-08-6, GSK-3 Inhibitor XIII] | 8.2 | 7.0 | – | – | – | –
13 | NC(=O)c1ccc2nc(-c3ccc(Oc4ccc(Cl)cc4)cc3)[nH]c2c1 [516480-79-8, Chk2 Inhibitor II] | 7.4 | 13.2 | – | – | – | –
14 | O=c1[nH]c2ccccc2n1C1CCN(Cc2ccc(-c3nc4cc5[nH]cnc5cc4nc3-c3ccccc3)cc2)CC1 [612847-09-3, Akt Inhibitor VIII] | 21.3 | 11.3 | – | failed to reduce SA-β-gal activity | – | –
15 | O=C1NC(=O)/C(=C/c2ccc3c(c2)OC(F)(F)O3)S1 [648449-76-7] | 20.7 | 26.9 | – | – | no effect on SA-β-gal area or cell number | –
16 | Cc1[nH]c(/C=C2\C(=O)Nc3ccc(S(=O)(=O)N(C)c4cccc(Cl)c4)cc32)c(C)c1C(=O)N1CCN(C)CC1 [658084-23-2, Met Kinase inhibitor] | 5.0 | 14.7 | – | – | – | –
17 | c1cc(-c2cnn3cc(-c4ccc(OCCN5CCCCC5)cc4)cnc23)ccn1 [866405-64-3, AMPK Compound C] | 4.4 | 15.9 | – | – | – | reported to prevent senescence
18 | O=C(Nc1cccc(Nc2nccc(Nc3cccc(C(F)(F)F)c3)n2)c1)C1CC1 [879127-16-9, Aurora Kinase Inhibitor III] | 5.7 | 15.8 | – | – | – | –
